Data set [1] has as its system Staphylococcus aureus. Nature of the data set: Antibacterial activity against Staphylococcus aureus up to 80 uM by broth microdilution method. Type of data set: functional, organism-based. The conditions noted are these: dose microM <=80.
Data set [2] in a line: Induction of singlet oxygen generation in DPBF solution assessed as singlet oxygen quantum yield irradiated with 80 mW/cm2 light by DPBF-based assay. In kind it is functional.
The test system of data set [3] is Candida albicans. Nature of the data set: Photodynamic antifungal activity against Candida albicans assessed as fungal eradication preincubated for 20 mins in dark condition followed by 18 J/cm2 LED light irradiation and measured after 18 hrs by broth microdilution method. Type of data set: functional. The conditions noted are these: light or radiation study, 18.33 h, time 1100 min.

The subject of data set [4] is Escherichia coli. In words: Photodynamic antibacterial activity against Escherichia coli assessed as bacterial eradication preincubated for 20 mins in dark condition followed by 18 J/cm2 LED light irradiation and measured after 18 hrs by broth microdilution method. In kind it is functional. Conditions: light or radiation study, 18.33 h, time 1100 min.
The subject of data set [5] is Escherichia coli. Nature of the data set: Antibacterial activity against Escherichia coli up to 80 uM by broth microdilution method. In kind it is functional, organism-based. Conditions: dose microM <=80.
In data set [6] the test system is Staphylococcus aureus. In words: Photodynamic antibacterial activity against methicillin resistant Staphylococcus aureus assessed as bacterial eradication preincubated for 20 mins in dark condition followed by 18 J/cm2 LED light irradiation and measured after 18 hrs by broth microdilution method. Type of data set: functional. The conditions noted are these: light or radiation study, 18.33 h, time 1100 min.

A short description of data set [7]: Octanol-water partition coefficient, logP of compound incubated for 24 hrs under shaking condition. In kind it is physicochemical.
For data set [8], the system named is Staphylococcus aureus. In words: Photodynamic antibacterial activity against Staphylococcus aureus assessed as bacterial eradication preincubated for 20 mins in dark condition followed by 18 J/cm2 LED light irradiation and measured after 18 hrs by broth microdilution method. Type of data set: functional. The conditions noted are these: light or radiation study, 18.33 h, time 1100 min.

In data set [9] the test system is Staphylococcus aureus. Nature of the data set: Antibacterial activity against methicillin resistant Staphylococcus aureus up to 80 uM by broth microdilution method. The conditions noted are these: dose microM <=80. Type of data set: functional, organism-based.
Data set [10] concerns Candida albicans. In words: Antifungal activity against Candida albicans up to 80 uM by broth microdilution method. Conditions: dose microM <=80. Type of data set: functional, organism-based.

The source made the active and inactive calls. The rule behind the calls is not given here.

`CC[N+](C)(CC)CCO[B-]1(OCC[N+](C)(CC)CC)n2c(C)c(I)c(C)c2C=C2C(C)=C(I)C(C)=[N+]21`: the outcome with Staphylococcus aureus [1], in the data set with Escherichia coli [5], in the data set with Staphylococcus aureus [9] and in the data set on Candida albicans [10] was inactive. Moreover, the Activity in data set [2] was 0.65. For the same molecule, the minimal inhibitory concentration (MIC) with Candida albicans [3] turned out to be 40 µM; with Escherichia coli [4], 40 µM; with Staphylococcus aureus [6], 40 µM; with Staphylococcus aureus [8] it was 30 µM. The same molecule yielded a logP at 24 h in data set [7] of -1.36.

Consider `CC1=C(I)C(C)=[N+]2C1=Cc1c(C)c(I)c(C)n1[B-]2(Oc1cc[n+](C)cc1)Oc1cc[n+](C)cc1`, for which the result in the data set on Staphylococcus aureus [1], in the data set with Escherichia coli [5], in the data set on Staphylococcus aureus [9] and in the data set with Candida albicans [10] was inactive. In [2], the Activity is 0.61. The minimum inhibitory concentration (MIC) in the data set on Candida albicans [3] came out at 40 µM; with Escherichia coli [4], 25 µM; in the data set with Staphylococcus aureus [6] it was 40 µM; in the data set with Staphylococcus aureus [8] it was 25 µM. For the same molecule, the lipophilicity (logP) at 24 h in data set [7] was -0.93.

Regarding `CC1=C(I)C(C)=[N+]2C1=Cc1c(C)c(I)c(C)n1[B-]2(OCCCCc1cc[n+](C)cc1)OCCCCc1cc[n+](C)cc1`, the outcome in the data set on Staphylococcus aureus [1], with Escherichia coli [5], with Staphylococcus aureus [9] and with Candida albicans [10] was inactive. Moreover, the Activity in [2] stood at 0.77. The minimal inhibitory concentration (MIC) in the data set on Candida albicans [3] was found to be 5 µM; in the data set on Escherichia coli [4], 0.625 µM; in the data set with Staphylococcus aureus [6] it was 1.25 µM; in the data set on Staphylococcus aureus [8], 1.25 µM. This molecule also came in with a logP at 24 h in data set [7] of -0.74.

For the molecule `CC1=C(I)C(C)=[N+]2C1=Cc1c(C)c(I)c(C)n1[B-]2(C#Cc1ccc[n+](C)c1)C#Cc1ccc[n+](C)c1`, the result with Staphylococcus aureus [1], with Escherichia coli [5], in the data set with Staphylococcus aureus [9] and in the data set with Candida albicans [10] was inactive. Further, the Activity in [2] was 0.65. In addition, the MIC turned out to be 0.625 µM with Candida albicans [3], 1.25 µM with Escherichia coli [4], 0.625 µM in the data set with Staphylococcus aureus [6] and 1.25 µM in the data set with Staphylococcus aureus [8]. The logP at 24 h in data set [7] was -0.27.

As for `CC1=C(I)C(C)=[N+]2C1=Cc1c(C)c(I)c(C)n1[B-]2(OCCCc1cc[n+](C)cc1)OCCCc1cc[n+](C)cc1`, the result with Staphylococcus aureus [1], in the data set on Escherichia coli [5], with Staphylococcus aureus [9] and in the data set with Candida albicans [10] was inactive. For the same molecule, the Activity in data set [2] came to 0.74. In addition, the minimum inhibitory concentration (MIC) with Candida albicans [3] came out at 5 µM; in the data set on Escherichia coli [4], 1.25 µM; with Staphylococcus aureus [6], 1.25 µM; with Staphylococcus aureus [8], 1.25 µM. The same molecule had a logP at 24 h in data set [7] of -0.91.

In the case of `CC[N+](C)(CC)CCCO[B-]1(OCCC[N+](C)(CC)CC)n2c(C)c(I)c(C)c2C=C2C(C)=C(I)C(C)=[N+]21`, the result with Staphylococcus aureus [1], with Escherichia coli [5], with Staphylococcus aureus [9] and in the data set on Candida albicans [10] was inactive. Moreover, the Activity in [2] was determined as 0.75. Also, the minimal inhibitory concentration (MIC) amounted to 40 µM with Candida albicans [3], 40 µM in the data set with Escherichia coli [4], 20 µM in the data set with Staphylococcus aureus [6] and 20 µM with Staphylococcus aureus [8]. This molecule showed a lipophilicity (logP) at 24 h in data set [7] of -0.93.

In the case of `CC1=C(I)C(C)=[N+]2C1=Cc1c(C)c(I)c(C)n1[B-]2(C#Cc1cc[n+](C)cc1)C#Cc1cc[n+](C)cc1`, the outcome in the data set on Staphylococcus aureus [1], with Escherichia coli [5], in the data set on Staphylococcus aureus [9] and in the data set on Candida albicans [10] was inactive. Besides, the Activity in data set [2] came to 0.54. For the same molecule, the MIC in the data set with Candida albicans [3] amounted to 0.625 µM; in the data set on Escherichia coli [4] it was 1.25 µM; in the data set on Staphylococcus aureus [6], 0.625 µM; with Staphylococcus aureus [8], 1.25 µM. This molecule also registered a logP at 24 h in data set [7] of -0.63.

The values above are taken from ChEMBL document CHEMBL4765326, “Anchoring BODIPY photosensitizers enable pan-microbial photoinactivation” (Eur J Med Chem, 2020).
